Measurements from PubChem BioAssay (NCI).
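Cultured in 96-well plates, cells were exposed to test compound for 48 hours across five concentrations. GI50 marks 50% less growth. TGI: total growth inhibition.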

Assays:
Experiment in all cases: NCI-60 cell line screen, 48 h
CCRF-CEM leukemia = tested on: CCRF-CEM leukemia
COLO 205 colon = tested on: COLO 205 colon
HT29 colon = tested on: HT29 colon
M14 melanoma = tested on: M14 melanoma
NCI-H460 lung = tested on: NCI-H460 lung
NCI/ADR-RES ovarian = tested on: NCI/ADR-RES ovarian
RPMI-8226 leukemia = tested on: RPMI-8226 leukemia
RXF 393 renal = tested on: RXF 393 renal
T-47D breast = tested on: T-47D breast
NCI-H226 lung = tested on: NCI-H226 lung

| SMILES | TGI (CCRF-CEM leukemia) | TGI (COLO 205 colon) | TGI (HT29 colon) | TGI (M14 melanoma) | TGI (NCI-H460 lung) | TGI (NCI/ADR-RES ovarian) | TGI (RPMI-8226 leukemia) | TGI (RXF 393 renal) | TGI (T-47D breast) | TGI (NCI-H226 lung) | GI50 (CCRF-CEM leukemia) | GI50 (HT29 colon) | GI50 (NCI/ADR-RES ovarian) | GI50 (RPMI-8226 leukemia) | GI50 (T-47D breast) |
| --- | --- | --- | --- | --- | --- | --- | --- | --- | --- | --- | --- | --- | --- | --- | --- |
| CC(=O)c1c(-c2ccco2)c(C#N)c(=S)n(C2OC(CO)C(O)C(O)C2O)c1C (stereo not given) | > 100 µM | > 100 µM | > 100 µM | > 100 µM | > 100 µM | > 100 µM | > 100 µM | > 100 µM | > 100 µM |  |  |  |  |  |  |
| COc1ccc(-c2nc(-c3cnccn3)n(C/C=C/c3ccccc3)n2)cc1 | > 100 µM | > 100 µM | > 100 µM | > 100 µM | > 100 µM | > 100 µM | > 100 µM |  | > 100 µM |  |  |  |  |  |  |
| C=C1c2nc3ccccc3n2C=C(c2ccccc2)N1c1ccc(C)cc1 | > 100 µM | > 100 µM |  | > 100 µM | > 100 µM | > 100 µM | > 100 µM | > 100 µM |  | > 100 µM |  |  |  |  |  |
| C=CC(C)(C)/C(=C\CO[Si](C(C)C)(C(C)C)C(C)C)C(=O)N(C)c1ccccc1I | 22.6 µM | 31.5 µM | 27.1 µM | 33.6 µM | 28.1 µM | 37.6 µM | 8.54 µM | 24.5 µM | 25.3 µM |  |  |  |  |  |  |
| O=C1CC(c2cccc([N+](=O)[O-])c2)C2(C(=O)NC(=S)NC2=O)C(c2cccc([N+](=O)[O-])c2)C1 (stereo not given) | 97.1 µM | > 100 µM | > 100 µM | 58.5 µM | > 100 µM | > 100 µM | > 100 µM |  | > 100 µM | 59.9 µM |  |  |  |  |  |
| COc1cc(/C=C2\N=C(c3ccccc3)N(c3cc4cc(Sc5ccccc5)ccc4[nH]3)C2=O)ccc1O | > 50 µM | > 50 µM | > 50 µM | > 50 µM | > 50 µM | 36.1 µM |  | 27.4 µM | > 50 µM | > 50 µM |  |  |  |  |  |
| COc1cccc(C2C(C#N)=C(N)Oc3cc(OCCCCCC[P+](c4ccccc4)(c4ccccc4)c4ccccc4)ccc32)c1 (stereo not given) | 3.36 µM |  | 3.67 µM |  |  | 78.3 µM | 0.659 µM |  | 1.95 µM |  | 0.596 µM | 0.613 µM | 11.9 µM | 0.194 µM | 0.354 µM |
| COc1ccc(-c2c(/C=N/OCC(=O)O)c3sc4ccccc4n3c2/C=N/OCC(=O)O)cc1 | > 50 µM | > 50 µM | > 50 µM | > 50 µM | > 50 µM | > 50 µM |  | > 50 µM | > 50 µM |  |  |  |  |  |  |
| O=c1[nH]c(=S)[nH]c2c1CCCN2 | > 100 µM | > 100 µM | > 100 µM | > 100 µM |  |  | > 100 µM | > 100 µM |  |  |  |  |  |  |  |
| COC1CCC(CO)OO1 (stereo not given) | > 100 µM | > 100 µM | > 100 µM | > 100 µM | > 100 µM |  | 93.1 µM | > 100 µM |  |  |  |  |  |  |  |
| N/C(=N\N=C/c1c(O)cc(O)cc1O)NO | > 92.6 µM | > 100 µM | > 100 µM |  | > 100 µM | > 100 µM | > 100 µM | > 100 µM |  | > 100 µM |  |  |  |  |  |
| CN(C)Cc1cc(/C=C/C(=O)c2ccc(Br)cc2)cc(CN(C)C)c1O | 25.4 µM | 30.1 µM | 62.4 µM | > 100 µM | 42.6 µM | > 100 µM | 26.5 µM | 74.5 µM | 35.4 µM |  |  |  |  |  |  |
